Results reported in patent US8288379B2, “Thia-triaza-cyclopentazulenes” (Boehringer Ingelheim International GmbH, priority 2009, dated 2012).

Biological target: T1, FRAP1 (mTOR) kinase (Homo sapiens, UniProt P42345)
T1 construct: purchased Invitrogen PV4753
Assay: Inhibition of mTOR-induced p-4E-BP1 phosphorylation (TR-FRET mTOR Activity Kit; Invitrogen)
Format: biochemical
Conditions: 400 nM GFP-4E-BP1 substrate, ~150 ng/mL mTOR, one hour at room temperature
Excerpt: Inhibition of mTOR-Induced p-4E-BP1 Phosphorylation (TR-FRET mTOR Activity Kit; Invitrogen)
• GFP-4E-BP1 substrate; Invitrogen order no. PV4759 • Lanthascreen Tb-anti-p4E-BP1 (pThr46) Antibody Kit; Invitrogen order no. PV4758 • FRAP1 (mTOR) kinase; Invitrogen order no. […] Preparation of Reagents: Note: Thaw and keep mTOR, the substrate, ATP, and the antibody on ice prior to making working dilutions. Working dilutions of these components can be kept at room temperature for short periods of time the day of use. 1. Add 2 ml of 5× Assay Buffer to 8 ml water to prepare 10 ml of 1× Assay Buffer. Note: The concentration of 1× Assay Buffer is 50 mM HEPES pH 7.5, 0.01% Polysorbate 20, 1 mM EGTA, and 10 mM MnCl2. 2. Prepare Antibody/EDTA Solution by first adding 2.75 n1 of Tb-anti p4E-BP1 Antibody to 2397 n1 of LanthaScreen™ TR-FRET Dilution Buffer. Then, add 100 n1 of 0.5 M EDTA. 3. Prepare 4× Substrate/Enzyme Solution by first adding 72 n1 of GFP-4E-BP1 (22 nM) to 926 n1 of 1× Assay Buffer. Then, add 1.6 n1 of mTOR (0.45 mg/mL). 4. Prepare ATP Solution by adding 3.2 n1 of 10 mM ATP to 1997 n1 of 1× Assay Buffer. Serial Dilution of Inhibitors (16 Point Curve): Note: It is recommended that inhibitors be serially diluted in DMSO, then diluted to a 4× working concentration with 1× Assay Buffer. The below procedure describes dilution of compounds in a 96-well format prior to transfer to a 384-well format for kinase assays. This procedure calls for dilution of the compounds in 2 adjacent columns of a 96-well plate, which upon transfer to a single column of a 384-well plate with an 8-channel pipette will align the samples in order of concentration. 1. Dispense 40 n1 of DMSO to two adjacent columns of a 96 well plate per compound (e.g. columns 1 and 2). 2. Add 10 n1 of inhibitor stock (10 mM) to the first well of the first column (A1) and mix. 3. Remove 10 n1 from A1 and transfer to the adjacent well in the next column (B1) and mix. 4. Remove 10 n1 from B1 and transfer to the next well in the first column (B2) and mix. 5. Repeat this dilution pattern through well H1 and leave the last well (H2) as DMSO only. 6. Remove 4 n1 of diluted compounds and add to 96 n1 of 1× Assay Buffer in a 96-well plate making 4× compound dilutions. Kinase Reaction: 1. Add 2.5 μl of 4× compound dilutions from the first column of the 96-well plate to every other well of column 1 of a 384-well plate with an 8-channel pipette. Repeat for columns 2 and 3. 2. Add 2.5 n1 of 4× compound dilutions from the second column of the 96-well plate to the empty wells of column 1 of the 384-well plate with an 8-channel pipette. Repeat for columns 2 and 3. Note: This procedure aligns the compound dilutions in order of concentration. 3. Add 2.5 n1 of 4× Enzyme/Substrate Solution to all columns 1-6. 4. Preincubate for 30 min. at RT (shaker). 5. Add 5 n1 of ATP Solution to all wells to start reactions. 6. Shake the assay plate on a plate shaker for 30 seconds. 7. Incubate the assay plate for one hour at room temperature (20-25° C.). Stop Step and Fluorescence Detection: 1. Add 10 n1 of Antibody/EDTA Solution to each well in columns 1-9. 2. Shake the assay plate on a plate shaker for 30 seconds. 3. Incubate the assay plate for one hour at room temperature (20-25° C.). 4. Measure the GFP (FRET) and terbium (reference) emission signals on a fluorescence plate reader (e.g. Perkin Elmer Envision). Data Analysis: 1. Calculate the emission ratio for each sample by dividing the GFP (FRET) signal by the terbium (reference) signal. 2. Plot the concentration of each compound versus the emission ratio. Determine the concentration of compound required to reach 50% of the maximum signal (IC50). Determination of IC50 values can be obtained by curve fitting (sigmoidal dose response, variable slope) using Prism software from GraphPad). Inhibition of Proliferation: CyQuant PC-3 Description: […]

T1 sequence (P42345 1360-2549 limits assumed): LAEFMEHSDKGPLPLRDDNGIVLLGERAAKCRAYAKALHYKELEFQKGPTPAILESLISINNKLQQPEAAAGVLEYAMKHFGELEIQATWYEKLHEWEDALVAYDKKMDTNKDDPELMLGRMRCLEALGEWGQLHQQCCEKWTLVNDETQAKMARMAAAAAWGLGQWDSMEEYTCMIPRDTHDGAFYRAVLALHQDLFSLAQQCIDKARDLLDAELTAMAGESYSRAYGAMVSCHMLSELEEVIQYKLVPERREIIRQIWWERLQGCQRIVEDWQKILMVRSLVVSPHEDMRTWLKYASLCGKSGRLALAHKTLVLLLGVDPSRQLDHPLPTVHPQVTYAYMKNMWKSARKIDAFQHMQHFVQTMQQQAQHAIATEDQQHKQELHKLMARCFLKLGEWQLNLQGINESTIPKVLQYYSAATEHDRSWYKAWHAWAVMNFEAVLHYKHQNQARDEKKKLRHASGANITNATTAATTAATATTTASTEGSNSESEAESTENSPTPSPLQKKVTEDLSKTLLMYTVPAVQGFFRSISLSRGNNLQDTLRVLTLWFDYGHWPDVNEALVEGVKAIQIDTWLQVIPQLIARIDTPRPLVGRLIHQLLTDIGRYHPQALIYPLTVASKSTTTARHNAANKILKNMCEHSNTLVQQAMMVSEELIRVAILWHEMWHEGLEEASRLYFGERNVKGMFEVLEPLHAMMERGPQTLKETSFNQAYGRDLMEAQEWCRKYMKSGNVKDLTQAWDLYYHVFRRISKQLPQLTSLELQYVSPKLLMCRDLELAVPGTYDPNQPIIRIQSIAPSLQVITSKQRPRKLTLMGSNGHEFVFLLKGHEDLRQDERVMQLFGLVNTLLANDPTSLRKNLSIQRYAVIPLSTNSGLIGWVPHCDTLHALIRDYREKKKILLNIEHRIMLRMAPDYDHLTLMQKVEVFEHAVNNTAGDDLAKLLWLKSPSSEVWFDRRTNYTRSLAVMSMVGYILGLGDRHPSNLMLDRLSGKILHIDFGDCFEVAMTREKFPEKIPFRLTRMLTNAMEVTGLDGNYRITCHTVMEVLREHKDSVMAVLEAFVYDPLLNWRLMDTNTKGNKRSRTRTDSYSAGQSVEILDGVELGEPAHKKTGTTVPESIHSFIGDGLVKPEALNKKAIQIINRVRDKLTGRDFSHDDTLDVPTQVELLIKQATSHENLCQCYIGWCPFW

Question: CNC(=O)Nc1nc2c(s1)-c1c(c(-c3ccc(NC)nc3)nn1C(C)C)CCC2 [Example B-144, 1-[1-Isopropyl-3-(6-methylamino-pyridin-3-yl)-1,4,5,6-tetrahydro-9-thia-1,2,7-triaza-cyclopent[e]azulen-8-yl]-3-methyl-urea] was tested. Which IC50 did it give?
Answer: 0.113 µM

Question: Which IC50 does the source give for CC(=O)Nc1nc2c(s1)-c1c(c(-c3c[nH]c(C)n3)nn1CCN(C)C)CCC2 [Example B-119] here?
Answer: 1.88 µM

Question: With CCNc1ccc(-c2nn(-c3ccccc3Br)c3c2CCCc2nc(NC(C)=O)sc2-3)cn1 [Example B-74] as the molecule, how does the IC50 read?
Answer: 0.168 µM

Question: How did the IC50 turn out when CC(=O)Nc1nc2c(s1)-c1c(c(-c3ccc(N)nc3)nn1CCN1CCOCC1)CCC2 [Example B-105] was run?
Answer: 1.39 µM

Question: Which IC50 does the source give for CC(C)n1ncc2c1-c1scnc1CCC2 [Example C-08, 1-Isopropyl-1,4,5,6-tetrahydro-9-thia-1,2,7-triaza-cyclopent[e]azulene] here?
Answer: 2.44 µM

Question: For CC(=O)Nc1nc2c(s1)-c1c(c(C(=O)NCCO)nn1C(C)C)CCC2 [Example E-04], which IC50 is on record?
Answer: 4.89 µM

Question: With CNC(=O)c1nn(C(C)C)c2c1CCCc1nc(NC(C)=O)sc1-2 [Example E-01] as the molecule, how does the IC50 read?
Answer: 5.18 µM

Question: Which IC50 does the source give for COC(=O)CCNC(=O)c1nn(C(C)C)c2c1CCCc1nc(NC(C)=O)sc1-2 [Example E-11] here?
Answer: 6.26 µM

Question: Which IC50 does the source give for Cn1ncc2c1-c1sc(-c3cccnc3)nc1CCC2 [Example G-02] here?
Answer: ≥ 20 µM

Question: How did the IC50 turn out when CC(=O)Nc1nc2c(s1)-c1c(c(-c3cncn3C)nn1-c1ccccc1)CCC2 [Example B-94] was run?
Answer: 8.36 µM

Question: Which IC50 does the source give for CC(=O)Nc1nc2c(s1)-c1c(c(C(=O)N(C)C)nn1C(C)C)CCC2 [Example E-02] here?
Answer: 16 µM

Question: With COCC(=O)Nc1nc2c(s1)-c1c(c(-c3ccc(N)nc3)nn1-c1ccccc1C)CCC2 [Example B-104, N-[3-(6-Amino-pyridin-3-yl)-1-o-tolyl-1,4,5,6-tetrahydro-9-thia-1,2,7-triaza-cyclopenta[e]azulen-8-yl]-2-methoxy-acetamide] as the molecule, how does the IC50 read?
Answer: 0.072 µM

Question: How did the IC50 turn out when Cc1ccc(-c2nn(-c3ccccc3C)c3c2CCCc2nc(NC(N)=O)sc2-3)cn1 [Example D-04] was run?
Answer: 0.402 µM

Question: CC(=O)Nc1nc2c(s1)-c1c(c(-c3cncn3C)nn1-c1ccccc1C)CCC2 [Example B-93] was tested. Which IC50 did it give?
Answer: 1.11 µM

Question: Which IC50 does the source give for CCNc1ccc(-c2nn(C(C)(C)C)c3c2CCCc2nc(NC(C)=O)sc2-3)cn1 [Example B-123] here?
Answer: 1.14 µM

Question: How did the IC50 turn out when CC(=O)Nc1nc2c(s1)-c1c(c(C(=O)NCCCO)nn1C(C)C)CCC2 [Example E-06] was run?
Answer: 18 µM

Question: How did the IC50 turn out when CC(=O)Nc1nc2c(s1)-c1c(c(C(=O)N(C)CCO)nn1C(C)C)CCC2 [Example E-05] was run?
Answer: ≥ 20 µM

Question: COCCNC(=O)c1nn(C(C)C)c2c1CCCc1nc(NC(C)=O)sc1-2 [Example E-07] was tested. Which IC50 did it give?
Answer: 11.4 µM

Question: How did the IC50 turn out when COCCN(C)C(=O)c1nn(C(C)C)c2c1CCCc1nc(NC(C)=O)sc1-2 [Example E-08] was run?
Answer: ≥ 20 µM

Question: Which IC50 does the source give for CC(=O)Nc1nc2c(s1)-c1c(c(C(=O)Nc3ccccc3)nn1C(C)C)CCC2 [Example E-09] here?
Answer: 8.45 µM

Question: Which IC50 does the source give for CC(=O)Nc1nc2c(s1)-c1c(c(-c3ccc(C)nc3)nn1-c1cccnc1)CCC2 [Example B-95] here?
Answer: 0.074 µM

Question: How did the IC50 turn out when CCNc1ccc(-c2nn(CCN3CCOCC3)c3c2CCCc2nc(NC(C)=O)sc2-3)cn1 [Example B-124] was run?
Answer: 0.994 µM

Question: Which IC50 does the source give for COCC(=O)Nc1nc2c(s1)-c1c(c(-c3ccc(C)nc3)nn1-c1ccccc1C)CCC2 [Example E-13] here?
Answer: 0.524 µM

Question: How did the IC50 turn out when CNc1ccc(-c2nn(-c3cccnc3)c3c2CCCc2nc(NC(C)=O)sc2-3)cn1 [Example B-84] was run?
Answer: 0.05 µM

Question: With COCCC(=O)Nc1nc2c(s1)-c1c(c(-c3ccc(C)nc3)nn1-c1ccccc1C)CCC2 [Example E-14] as the molecule, how does the IC50 read?
Answer: 0.698 µM

Question: CCOC(=O)CCCNC(=O)c1nn(C(C)C)c2c1CCCc1nc(NC(C)=O)sc1-2 [Example E-12] was tested. Which IC50 did it give?
Answer: 5.41 µM

Question: Which IC50 does the source give for CCNc1ccc(-c2nn(-c3ccccc3C)c3c2CCCc2nc(NC(=O)COC)sc2-3)cn1 [Example B-100, N-[3-(6-Ethylamino-pyridin-3-yl)-1-o-tolyl-1,4,5,6-tetrahydro-9-thia-1,2,7-triaza-cyclopenta[e]azulen-8-yl]-2-methoxy-acetamide] here?
Answer: 0.286 µM

Question: Which IC50 does the source give for COCCNC(=O)Nc1nc2c(s1)-c1c(c(-c3ccc(C)nc3)nn1-c1ccccc1C)CCC2 [Example D-06] here?
Answer: 1.6 µM

Question: For CC(=O)Nc1nc2c(s1)-c1c(c(C(=O)N(C)CCN(C)C)nn1C(C)C)CCC2 [Example E-03], which IC50 is on record?
Answer: 4.85 µM

Question: Which IC50 does the source give for CNc1ccc(-c2nn(-c3ccccc3C)c3c2CCCc2nc(NC(=O)COC)sc2-3)cn1 [Example B-107, 2-Methoxy-N-[3-(6-methylamino-pyridin-3-yl)-1-o-tolyl-1,4,5,6-tetrahydro-9-thia-1,2,7-triaza-cyclopenta[e]azulen-8-yl]-acetamide] here?
Answer: 0.427 µM

Question: How did the IC50 turn out when CNC(=O)Nc1nc2c(s1)-c1c(c(-c3ccc(NC)nc3)nn1-c1ccccc1C)CCC2 [Example B-142, 1-Methyl-3-[3-(6-methylamino-pyridin-3-yl)-1-o-tolyl-1,4,5,6-tetrahydro-9-thia-1,2,7-triaza-cyclopent[e]azulen-8-yl]-urea] was run?
Answer: 0.092 µM

Question: How did the IC50 turn out when Cc1ccccc1-n1nc(-c2ccc(N)nc2)c2c1-c1sc(NC(=O)CN)nc1CCC2 [Example B-102] was run?
Answer: 0.032 µM

Question: Cc1ccc(-c2nn(-c3ccccc3C)c3c2CCCc2nc(NC(=O)NCCN(C)C)sc2-3)cn1 [Example D-07] was tested. Which IC50 did it give?
Answer: 1.28 µM

Question: For CN(C)C(=O)Nc1nc2c(s1)-c1c(c(-c3ccc(N)nc3)nn1-c1ccccc1F)CCC2 [Example B-97], which IC50 is on record?
Answer: 0.175 µM

Question: With CNC(=O)Nc1nc2c(s1)-c1c(c(-c3ccc(C)nc3)nn1-c1ccccc1C)CCC2 [Example D-05] as the molecule, how does the IC50 read?
Answer: 0.358 µM

Question: How did the IC50 turn out when CC(=O)Nc1nc2c(s1)-c1c(c(-c3c[nH]cn3)nn1CCN(C)C)CCC2 [Example B-110] was run?
Answer: 0.84 µM

Question: How did the IC50 turn out when CCNc1ccc(-c2nn(-c3ccccc3C)c3c2CCCc2nc(N)sc2-3)cn1 [Example C-03] was run?
Answer: 3.34 µM

Question: CCNc1ccc(-c2nn(C(C)C)c3c2CCCc2nc(NC(=O)NC)sc2-3)cn1 [Example B-140] was tested. Which IC50 did it give?
Answer: 0.182 µM

Question: CNc1ccc(-c2nn(CCN3CCOCC3)c3c2CCCc2nc(NC(=O)N(C)C)sc2-3)cn1 [Example B-98] was tested. Which IC50 did it give?
Answer: 0.737 µM

Question: With CCNc1ccc(-c2nn(C(C)COC)c3c2CCCc2nc(NC(C)=O)sc2-3)cn1 (centres unmarked) [Example B-126] as the molecule, how does the IC50 read?
Answer: 0.084 µM

Question: Which IC50 does the source give for CC(=O)Nc1nc2c(s1)-c1c(c(C(=O)Nc3cc[nH]n3)nn1C(C)C)CCC2 [Example E-10] here?
Answer: 1.58 µM

Question: Which IC50 does the source give for CCc1ccccc1-n1nc(-c2ccc(NC)nc2)c2c1-c1sc(NC(C)=O)nc1CCC2 [Example B-88, N-[1-(2-Ethyl-phenyl)-3-(6-methylamino-pyridin-3-yl)-1,4,5,6-tetrahydro-9-thia-1,2,7-triaza-cyclopenta[e]azulen-8-yl]-acetamide] here?
Answer: 0.269 µM

Question: For CCNc1ccc(-c2nn(-c3ccncc3C)c3c2CCCc2nc(N)sc2-3)cn1 [Example C-07], which IC50 is on record?
Answer: 2.19 µM

Question: CCNc1ccc(-c2nn(-c3cccnc3C)c3c2CCCc2nc(NC(=O)N(C)C)sc2-3)cn1 [Example B-141] was tested. Which IC50 did it give?
Answer: 0.512 µM
